Results from ChEMBL document CHEMBL1150757, “Isolation, structure, synthesis, and antimitotic properties of combretastatins B-3 and B-4 from Combretum caffrum” (J Nat Prod, 1988).

Legend:
[1] = test system: L1210; assay: Cytotoxicity against mouse L1210 cells after 24 hrs; assay type: functional, cell-based; settings: L1210, 24 h
[2] = test system: L1210; assay: Antimitotic activity in mouse L1210 cells assessed as increase in mitotic index at 2 to 7 times IC50 after 6 hrs relative to control; assay type: functional
[3] = Inhibition of microtubule assembly after 15 mins
[4] = Displacement of [3H]colchicine from tubulin at inhibitor and colchicine ratio 1:1 after 10 mins relative to control; parameters: concentration or dose not given beside the values; settings: values are per cent of control
[5] = Displacement of [3H]colchicine from tubulin at inhibitor and colchicine ratio 10:1 after 10 mins relative to control; parameters: concentration or dose not given beside the values; settings: values are per cent of control
[6] = Displacement of [3H]colchicine from tubulin at inhibitor and colchicine ratio 100:1 after 10 mins relative to control; settings: values are per cent of control
[7] = test system: P388; assay: Cytotoxicity against mouse P388 cells; assay type: functional

SMILES	IC50 [1] [nM]	Activity [2] [%]	IC50 [3] [µM]	residual binding, % of control [4] [%]	residual binding, % of control [5] [%]	residual binding, % of control [6] [%]	ED50 [7] [Ug/ml]
COc1ccc(/C=C\c2cc(OC)c(OC)c(OC)c2)c(O)c1O [COMBRETASTATIN A-1]	600	25	4	3	0		
COc1cc(CCc2ccc(OC)c(O)c2)cc(OC)c1	1000	25	30	38	8	3	1.7
COc1ccc(CCc2cc(OC)c(OC)c(OC)c2)cc1OC	20000	25	> 100	88	63	37	
COc1ccc(CCc2cc(OC)c(OC)c(OC)c2)c(O)c1O	2000	25	4	13	0		
COc1cc(CCc2ccc(O)c(O)c2)cc(OC)c1OC	3000	25	> 100	92	81	48	0.4
COc1cc(CCc2ccc(O)c(O)c2)cc(OC)c1	1000	25	> 100	75	31	10	1.7
COc1cc(CCc2ccc(O)cc2)cc(OC)c1OC	50000	25	> 100	89	77	43	0.25
COc1cc([C@@H]2c3cc4c(cc3[C@H](O)[C@H]3COC(=O)[C@H]23)OCO4)cc(OC)c1OC [PODOFILOX]			4	11	0		
COc1cc(CCc2ccc(OC)c(OC)c2)cc(OC)c1	30000	56	> 100	90	80	34	
